ChEMBL document CHEMBL1201862, “PubChem BioAssay data set” (2004)
Calls of active or inactive are those of the source.

Columns and labels:
Assay type in all cases: functional
[1] = molecular target: Protein kinase C theta type (Homo sapiens, UniProt Q04759); experiment: Navigating the Kinome. Panel member name: PRKCQ
[2] = molecular target: Dual specificity protein kinase CLK2 (Homo sapiens, UniProt P49760)
[3] = molecular target: Dual specificity mitogen-activated protein kinase kinase 1 (Homo sapiens, UniProt Q02750); experiment: Navigating the Kinome. Panel member name: MAP2K1
[4] = molecular target: Serine/threonine-protein kinase TBK1 (Homo sapiens, UniProt Q9UHD2); experiment: Navigating the Kinome. Panel member name: TBK1
[5] = molecular target: 5'-AMP-activated protein kinase catalytic subunit alpha-1 (Homo sapiens, UniProt Q13131)
[6] = molecular target: ALK tyrosine kinase receptor (Homo sapiens, UniProt Q9UM73);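 note: ALK tested as one member of a kinase panel screen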
[7] = molecular target: Proto-oncogene tyrosine-protein kinase receptor Ret (Homo sapiens, UniProt P07949);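 note: measured within a kinome-wide profiling panel, RET as the panel member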
[8] = molecular target: Tyrosine-protein kinase receptor TYRO3 (Homo sapiens, UniProt Q06418);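 note: TYRO3 value obtained as one member of a kinome-wide profiling panel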
Sequence of Tyrosine-protein kinase receptor TYRO3 (Q06418 whole entry): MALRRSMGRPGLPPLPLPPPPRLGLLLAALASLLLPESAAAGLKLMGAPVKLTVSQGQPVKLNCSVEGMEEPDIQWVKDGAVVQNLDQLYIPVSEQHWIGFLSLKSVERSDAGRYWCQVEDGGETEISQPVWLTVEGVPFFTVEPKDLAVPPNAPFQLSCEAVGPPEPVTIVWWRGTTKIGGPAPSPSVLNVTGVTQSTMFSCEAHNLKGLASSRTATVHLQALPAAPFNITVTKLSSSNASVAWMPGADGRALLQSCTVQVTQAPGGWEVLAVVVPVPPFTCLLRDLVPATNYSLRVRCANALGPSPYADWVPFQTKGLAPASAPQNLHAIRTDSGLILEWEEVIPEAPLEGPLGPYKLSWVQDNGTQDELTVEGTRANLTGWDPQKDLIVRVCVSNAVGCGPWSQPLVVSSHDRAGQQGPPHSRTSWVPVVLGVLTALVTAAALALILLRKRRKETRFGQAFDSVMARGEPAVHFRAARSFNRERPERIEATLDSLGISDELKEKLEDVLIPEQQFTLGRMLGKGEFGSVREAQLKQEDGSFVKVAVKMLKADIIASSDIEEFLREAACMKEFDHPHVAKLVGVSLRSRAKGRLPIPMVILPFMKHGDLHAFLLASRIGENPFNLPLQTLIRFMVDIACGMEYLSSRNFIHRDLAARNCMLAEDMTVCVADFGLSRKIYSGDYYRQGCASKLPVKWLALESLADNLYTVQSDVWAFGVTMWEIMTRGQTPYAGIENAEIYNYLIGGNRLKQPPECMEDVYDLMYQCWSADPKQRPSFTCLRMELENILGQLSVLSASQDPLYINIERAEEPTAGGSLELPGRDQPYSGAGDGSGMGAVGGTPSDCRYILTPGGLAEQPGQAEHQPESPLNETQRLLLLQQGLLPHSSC

[9] = molecular target: Serine/threonine-protein kinase D3 (Homo sapiens, UniProt O94806);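 note: determined within a kinase panel screen, with PRKCN as the panel member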
[10] = molecular target: Death-associated protein kinase 3 (Homo sapiens, UniProt O43293);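 note: measured as one member of a kinome-wide profiling panel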
[11] = molecular target: Activin receptor type-1 (Homo sapiens, UniProt Q04771); experiment: Navigating the Kinome. Panel member name: ACVR1
[12] = molecular target: Mitogen-activated protein kinase 8 (Homo sapiens, UniProt P45983);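 note: value comes from one member of a kinome-wide kinase profiling panel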
[13] = molecular target: Serine/threonine-protein kinase pim-1 (Homo sapiens, UniProt P11309)
[14] = molecular target: Aurora kinase A (Homo sapiens, UniProt O14965);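 note: value from the Navigating the Kinome kinase panel profiling, panel entry STK6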
[15] = molecular target: Tyrosine-protein kinase BTK (Homo sapiens, UniProt Q06187)
[16] = molecular target: Serine/threonine-protein kinase PAK 4 (Homo sapiens, UniProt O96013);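 note: value obtained within a kinome profiling panel in which PAK4 was one of the panel members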
[17] = molecular target: Fibroblast growth factor receptor 1 (Homo sapiens, UniProt P11362)
[18] = molecular target: Casein kinase I isoform alpha (Homo sapiens, UniProt P48729)
[19] = molecular target: LIM domain kinase 1 (Homo sapiens, UniProt P53667); experiment: Navigating the Kinome. Panel member name: LIMK1
[20] = molecular target: High affinity nerve growth factor receptor (Homo sapiens, UniProt P04629);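 note: NTRK1 tested as one member of a kinome-wide profiling panel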
[21] = molecular target: Glycogen synthase kinase-3 alpha (Homo sapiens, UniProt P49840);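 note: GSK3A result taken from a broad kinome-wide kinase panel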
[22] = molecular target: Mitogen-activated protein kinase kinase kinase kinase 2 (Homo sapiens, UniProt Q12851);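 note: measured as one member of a kinome-wide kinase panel, with MAP4K2 as the panel entry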
[23] = molecular target: Hepatocyte growth factor receptor (Homo sapiens, UniProt P08581);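 note: kinase panel profiling across the kinome, with MET as the panel member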
[24] = molecular target: Activated CDC42 kinase 1 (Homo sapiens, UniProt Q07912); experiment: Navigating the Kinome. Panel member name: ACK1
[25] = molecular target: Receptor-type tyrosine-protein kinase FLT3 (Homo sapiens, UniProt P36888);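 note: FLT3 was tested as one member of a kinome-wide kinase panel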
[26] = molecular target: Serine/threonine-protein kinase Chk1 (Homo sapiens, UniProt O14757);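 note: measured as one member of a kinome-wide kinase profiling panel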
[27] = molecular target: Tyrosine-protein kinase ABL1 (Homo sapiens, UniProt P00519)
[28] = molecular target: Cyclin-dependent kinase 5 (Homo sapiens, UniProt Q00535);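 note: CDK5 measured as one member of a kinase profiling panel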
[29] = molecular target: Insulin-like growth factor 1 receptor (Homo sapiens, UniProt P08069); experiment: Navigating the Kinome. Panel member name: IGF1R
[30] = molecular target: Dual specificity tyrosine-phosphorylation-regulated kinase 1B (Homo sapiens, UniProt Q9Y463); experiment: Navigating the Kinome. Panel member name: DYRK1B
[31] = molecular target: cAMP-dependent protein kinase catalytic subunit PRKX (Homo sapiens, UniProt P51817)
[32] = molecular target: Platelet-derived growth factor receptor alpha (Homo sapiens, UniProt P16234); experiment: Navigating the Kinome. Panel member name: PDGFRA
[33] = molecular target: Leucine-rich repeat serine/threonine-protein kinase 2 (Homo sapiens, UniProt Q5S007);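 note: value from a broad kinome-wide panel profiling study in which LRRK2 was one of the kinases tested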
[34] = molecular target: Aurora kinase B (Homo sapiens, UniProt Q96GD4)
[35] = molecular target: Rho-associated protein kinase 1 (Homo sapiens, UniProt Q13464);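 note: measured within a broad kinome-wide panel profiling many kinases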
[36] = molecular target: Tyrosine-protein kinase Fyn (Homo sapiens, UniProt P06241)
[37] = molecular target: Serine/threonine-protein kinase Nek2 (Homo sapiens, UniProt P51955)
[38] = molecular target: Cyclin-dependent kinase 8 (Homo sapiens, UniProt P49336); experiment: Navigating the Kinome. Panel member name: CDK8
Sequence of Cyclin-dependent kinase 8 (P49336 whole entry): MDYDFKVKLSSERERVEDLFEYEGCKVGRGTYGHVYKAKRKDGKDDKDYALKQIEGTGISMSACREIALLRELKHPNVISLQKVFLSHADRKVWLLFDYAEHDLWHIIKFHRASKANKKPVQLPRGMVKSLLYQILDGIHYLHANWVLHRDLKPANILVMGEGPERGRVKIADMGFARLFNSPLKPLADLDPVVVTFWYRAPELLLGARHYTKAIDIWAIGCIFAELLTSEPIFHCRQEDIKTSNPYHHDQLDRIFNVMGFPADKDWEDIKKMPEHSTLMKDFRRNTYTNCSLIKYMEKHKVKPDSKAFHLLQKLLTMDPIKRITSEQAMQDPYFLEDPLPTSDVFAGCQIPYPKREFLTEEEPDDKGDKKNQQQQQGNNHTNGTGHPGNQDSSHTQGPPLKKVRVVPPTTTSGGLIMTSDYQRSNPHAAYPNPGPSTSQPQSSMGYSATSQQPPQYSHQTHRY

[39] = molecular target: Cyclin-dependent kinase 7 (Homo sapiens, UniProt P50613);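 note: value comes from a kinome-wide kinase profiling panel in which CDK7 is one member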
[40] = molecular target: Vascular endothelial growth factor receptor 1 (Homo sapiens, UniProt P17948);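 note: measured within a kinome-wide profiling panel, FLT1 as the panel member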
Sequence of Vascular endothelial growth factor receptor 1 (P17948 whole entry): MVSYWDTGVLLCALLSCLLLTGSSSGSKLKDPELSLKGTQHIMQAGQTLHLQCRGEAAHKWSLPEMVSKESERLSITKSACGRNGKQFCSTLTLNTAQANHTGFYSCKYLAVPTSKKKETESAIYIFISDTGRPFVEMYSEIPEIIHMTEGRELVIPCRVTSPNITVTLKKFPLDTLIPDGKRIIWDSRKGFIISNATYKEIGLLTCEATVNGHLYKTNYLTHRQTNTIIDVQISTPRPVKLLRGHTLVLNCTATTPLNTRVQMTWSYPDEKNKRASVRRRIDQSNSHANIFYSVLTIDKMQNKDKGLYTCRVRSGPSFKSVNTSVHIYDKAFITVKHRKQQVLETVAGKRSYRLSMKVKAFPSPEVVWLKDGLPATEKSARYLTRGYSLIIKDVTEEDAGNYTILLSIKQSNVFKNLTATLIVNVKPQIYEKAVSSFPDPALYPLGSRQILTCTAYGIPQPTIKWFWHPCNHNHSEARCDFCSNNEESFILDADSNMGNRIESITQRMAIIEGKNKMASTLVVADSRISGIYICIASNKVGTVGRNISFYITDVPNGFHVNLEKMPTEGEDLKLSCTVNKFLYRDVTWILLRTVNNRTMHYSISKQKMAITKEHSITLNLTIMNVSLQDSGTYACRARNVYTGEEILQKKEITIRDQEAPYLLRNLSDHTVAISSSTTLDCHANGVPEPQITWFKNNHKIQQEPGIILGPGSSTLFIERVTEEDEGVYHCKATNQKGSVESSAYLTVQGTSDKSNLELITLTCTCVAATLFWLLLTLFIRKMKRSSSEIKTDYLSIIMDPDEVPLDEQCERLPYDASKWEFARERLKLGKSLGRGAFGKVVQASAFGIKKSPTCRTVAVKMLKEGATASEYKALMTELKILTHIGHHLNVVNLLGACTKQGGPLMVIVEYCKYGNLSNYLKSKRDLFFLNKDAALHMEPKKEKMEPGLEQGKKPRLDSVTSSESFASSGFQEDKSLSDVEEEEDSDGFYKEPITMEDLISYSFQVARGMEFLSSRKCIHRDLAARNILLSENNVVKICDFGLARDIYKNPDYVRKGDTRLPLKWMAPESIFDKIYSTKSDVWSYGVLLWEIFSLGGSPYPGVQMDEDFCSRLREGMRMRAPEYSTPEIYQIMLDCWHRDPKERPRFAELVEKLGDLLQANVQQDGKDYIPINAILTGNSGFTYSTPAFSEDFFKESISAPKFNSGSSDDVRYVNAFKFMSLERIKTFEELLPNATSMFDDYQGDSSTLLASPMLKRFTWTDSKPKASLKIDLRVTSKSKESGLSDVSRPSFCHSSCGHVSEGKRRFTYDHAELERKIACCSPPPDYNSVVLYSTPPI

[41] = molecular target: Glycogen synthase kinase-3 beta (Homo sapiens, UniProt P49841);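 note: value comes from a broad kinome profiling panel, with GSK3B as the panel member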
[42] = molecular target: Cyclin-dependent kinase 9 (Homo sapiens, UniProt P50750);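 note: value from the CDK9 entry of a kinome-spanning kinase panel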
[43] = molecular target: BDNF/NT-3 growth factors receptor (Homo sapiens, UniProt Q16620);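 note: NTRK2 measured as one member of a broad kinome-wide kinase profiling panel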
[44] = molecular target: cAMP-dependent protein kinase catalytic subunit alpha (Homo sapiens, UniProt P17612)
[45] = molecular target: Dual specificity protein kinase CLK4 (Homo sapiens, UniProt Q9HAZ1)
[46] = molecular target: Mitogen-activated protein kinase kinase kinase kinase 4 (Homo sapiens, UniProt O95819)
[47] = molecular target: Macrophage-stimulating protein receptor (Homo sapiens, UniProt Q04912); experiment: Navigating the Kinome. Panel member name: MST1R
[48] = molecular target: Macrophage colony-stimulating factor 1 receptor (Homo sapiens, UniProt P07333);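 note: value comes from the Navigating the Kinome screening panel, CSF1R member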
Sequence of Macrophage colony-stimulating factor 1 receptor (P07333 whole entry): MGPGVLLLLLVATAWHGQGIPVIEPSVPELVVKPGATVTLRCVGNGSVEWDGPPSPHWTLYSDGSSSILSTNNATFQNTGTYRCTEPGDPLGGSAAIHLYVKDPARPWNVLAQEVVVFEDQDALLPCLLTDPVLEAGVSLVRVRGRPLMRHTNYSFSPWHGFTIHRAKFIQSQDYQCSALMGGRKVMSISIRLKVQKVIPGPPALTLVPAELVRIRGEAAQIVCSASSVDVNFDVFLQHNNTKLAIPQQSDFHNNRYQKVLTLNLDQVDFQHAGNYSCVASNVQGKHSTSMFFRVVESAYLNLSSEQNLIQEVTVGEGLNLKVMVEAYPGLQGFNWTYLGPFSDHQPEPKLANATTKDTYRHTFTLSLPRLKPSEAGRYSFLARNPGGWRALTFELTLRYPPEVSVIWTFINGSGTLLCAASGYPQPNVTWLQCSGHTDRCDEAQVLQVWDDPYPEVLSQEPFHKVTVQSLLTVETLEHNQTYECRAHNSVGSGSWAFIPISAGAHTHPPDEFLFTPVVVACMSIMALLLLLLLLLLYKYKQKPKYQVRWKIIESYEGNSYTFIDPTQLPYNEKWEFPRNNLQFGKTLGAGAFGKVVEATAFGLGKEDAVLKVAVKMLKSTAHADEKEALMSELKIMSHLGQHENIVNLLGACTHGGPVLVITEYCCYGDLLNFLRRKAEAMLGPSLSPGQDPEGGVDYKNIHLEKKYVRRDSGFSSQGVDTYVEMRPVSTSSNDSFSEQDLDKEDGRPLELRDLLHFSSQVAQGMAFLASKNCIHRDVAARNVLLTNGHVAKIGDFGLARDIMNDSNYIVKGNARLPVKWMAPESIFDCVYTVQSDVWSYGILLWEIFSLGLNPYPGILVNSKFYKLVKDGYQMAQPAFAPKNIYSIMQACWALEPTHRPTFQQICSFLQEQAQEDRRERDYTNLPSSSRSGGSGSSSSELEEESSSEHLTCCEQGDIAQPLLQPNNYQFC

[49] = molecular target: Dual specificity tyrosine-phosphorylation-regulated kinase 1A (Homo sapiens, UniProt Q13627);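 note: measured against DYRK1A as one member of a broad kinome profiling panel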
[50] = molecular target: Inhibitor of nuclear factor kappa-B kinase subunit epsilon (Homo sapiens, UniProt Q14164); experiment: Navigating the Kinome. Panel member name: IKBKE
[51] = molecular target: Calcium/calmodulin-dependent protein kinase type II subunit alpha (Homo sapiens, UniProt Q9UQM7); experiment: Navigating the Kinome. Panel member name: CAMK2A
Sequence of Calcium/calmodulin-dependent protein kinase type II subunit alpha (Q9UQM7 whole entry): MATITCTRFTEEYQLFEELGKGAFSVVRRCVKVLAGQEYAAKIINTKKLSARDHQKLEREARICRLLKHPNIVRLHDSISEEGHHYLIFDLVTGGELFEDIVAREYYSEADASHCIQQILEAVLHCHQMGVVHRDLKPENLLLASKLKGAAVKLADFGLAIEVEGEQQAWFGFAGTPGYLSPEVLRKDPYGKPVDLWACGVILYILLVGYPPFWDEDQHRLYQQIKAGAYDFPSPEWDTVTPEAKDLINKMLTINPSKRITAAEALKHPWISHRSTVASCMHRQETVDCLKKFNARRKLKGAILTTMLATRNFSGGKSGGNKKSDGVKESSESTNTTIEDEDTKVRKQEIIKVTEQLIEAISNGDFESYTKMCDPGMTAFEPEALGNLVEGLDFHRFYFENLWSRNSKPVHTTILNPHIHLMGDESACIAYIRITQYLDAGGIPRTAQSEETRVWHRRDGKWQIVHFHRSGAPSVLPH

[52] = molecular target: Leukocyte tyrosine kinase receptor (Homo sapiens, UniProt P29376); experiment: Navigating the Kinome. Panel member name: LTK
Sequence of Leukocyte tyrosine kinase receptor (P29376 whole entry): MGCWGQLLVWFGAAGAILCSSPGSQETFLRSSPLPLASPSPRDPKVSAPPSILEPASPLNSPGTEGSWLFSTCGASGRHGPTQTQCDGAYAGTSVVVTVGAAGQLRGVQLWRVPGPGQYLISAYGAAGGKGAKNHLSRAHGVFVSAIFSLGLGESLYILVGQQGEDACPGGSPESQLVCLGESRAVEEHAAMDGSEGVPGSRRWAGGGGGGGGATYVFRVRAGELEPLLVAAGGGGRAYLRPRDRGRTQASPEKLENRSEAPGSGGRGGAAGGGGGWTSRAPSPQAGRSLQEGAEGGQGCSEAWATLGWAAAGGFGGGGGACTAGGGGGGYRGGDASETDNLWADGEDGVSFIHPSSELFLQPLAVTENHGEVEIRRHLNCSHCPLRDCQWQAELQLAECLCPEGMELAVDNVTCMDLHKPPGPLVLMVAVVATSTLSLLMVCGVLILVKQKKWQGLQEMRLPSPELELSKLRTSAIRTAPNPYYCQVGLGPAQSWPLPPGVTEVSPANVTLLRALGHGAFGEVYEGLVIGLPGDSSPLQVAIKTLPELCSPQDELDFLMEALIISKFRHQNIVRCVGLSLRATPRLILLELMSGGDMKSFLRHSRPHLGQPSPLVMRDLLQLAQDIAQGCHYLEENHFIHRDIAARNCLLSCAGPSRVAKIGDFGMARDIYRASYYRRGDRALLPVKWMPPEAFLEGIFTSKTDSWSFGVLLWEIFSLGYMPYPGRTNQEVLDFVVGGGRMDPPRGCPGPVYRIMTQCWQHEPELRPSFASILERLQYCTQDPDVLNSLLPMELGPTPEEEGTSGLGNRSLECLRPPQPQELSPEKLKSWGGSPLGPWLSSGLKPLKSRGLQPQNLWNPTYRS

[53] = molecular target: Tyrosine-protein kinase JAK2 (Homo sapiens, UniProt O60674);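 note: JAK2 tested as one member of a kinase panel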
[54] = molecular target: Serine/threonine-protein kinase 17A (Homo sapiens, UniProt Q9UEE5)
[55] = molecular target: Mast/stem cell growth factor receptor Kit (Homo sapiens, UniProt P10721);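 note: KIT entry within a kinase panel assay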
[56] = molecular target: Casein kinase II subunit alpha (Homo sapiens, UniProt P68400)
[57] = molecular target: Tyrosine-protein kinase JAK3 (Homo sapiens, UniProt P52333)
[58] = molecular target: Tyrosine-protein kinase Blk (Homo sapiens, UniProt P51451);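 note: obtained as one member of a kinome-wide kinase assay panel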
[59] = molecular target: Homeodomain-interacting protein kinase 2 (Homo sapiens, UniProt Q9H2X6);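 note: measured within a kinome-wide kinase profiling panel, HIPK2 being one panel member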
[60] = molecular target: Protein kinase C gamma type (Homo sapiens, UniProt P05129)
[61] = molecular target: Vascular endothelial growth factor receptor 2 (Homo sapiens, UniProt P35968)
[62] = molecular target: G protein-coupled receptor kinase 5 (Homo sapiens, UniProt P34947); experiment: Navigating the Kinome. Panel member name: GPRK5
[63] = molecular target: Vascular endothelial growth factor receptor 3 (Homo sapiens, UniProt P35916);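 note: value from a kinome-wide profiling panel, with FLT4 as the panel member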
[64] = molecular target: Homeodomain-interacting protein kinase 4 (Homo sapiens, UniProt Q8NE63)
[65] = molecular target: Fibroblast growth factor receptor 3 (Homo sapiens, UniProt P22607)
[66] = molecular target: Tyrosine-protein kinase receptor UFO (Homo sapiens, UniProt P30530)

Measured: Ki

Nc1cc(=O)[nH]n1-c1ccccn1
active: [1] 20 µM | [2] 50.1 µM | [3] 79.4 µM | [4] 7.94 µM | [5] 15.8 µM | [6] 31.6 µM | [7] 12.6 µM | [8] 7.94 µM | [9] 10 µM | [10] 20 µM | [11] 15.8 µM | [12] 31.6 µM | [13] 50.1 µM | [14] 7.94 µM | [15] 31.6 µM | [16] 63.1 µM | [17] 31.6 µM | [18] 20 µM | [19] 1.58 µM | [20] 15.8 µM | [21] 31.6 µM | [22] 10 µM | [23] 6.31 µM | [24] 50.1 µM | [25] 15.8 µM | [26] 2.51 µM | [27] 12.6 µM | [28] 6.31 µM | [29] 79.4 µM | [30] 3.98 µM | [31] 10 µM | [32] 12.6 µM | [33] 6.31 µM | [34] 25.1 µM | [35] 79.4 µM | [36] 50.1 µM | [37] 3.16 µM | [38] 5.01 µM | [39] 20 µM | [40] 20 µM | [41] 20 µM | [42] 3.98 µM | [43] 100 µM | [44] 15.8 µM | [45] 0.501 µM | [46] 63.1 µM | [47] 50.1 µM | [48] 15.8 µM | [49] 2 µM | [50] 15.8 µM | [51] 15.8 µM | [52] 3.98 µM

CN1CCN(c2ccc(C(=O)Nc3n[nH]c4ccc(Cc5cc(F)cc(F)c5)cc34)c(NC3CCOCC3)c2)CC1 [ENTRECTINIB]
active: [53] 0.02 µM | [10] 2.51 µM | [55] 0.158 µM | [57] 0.501 µM | [58] 0.2 µM | [59] 1.58 µM | [60] 0.631 µM | [61] 0.398 µM | [62] 2.51 µM | [33] 2.51 µM | [63] 0.2 µM | [40] 0.794 µM | [65] 0.158 µM | [48] 0.0398 µM | [66] 0.0398 µM | [52] 0.00158 µM
inactive: [8] > 3.16 µM | [54] > 3.16 µM | [56] > 6.31 µM | [30] > 2.51 µM | [32] > 2.51 µM | [64] > 7.94 µM | [38] > 3.98 µM | [51] > 3.98 µM
